35 compounds from patent US10899774B2, “IRAK4 modulators” (Genentech, Inc., priority 2017, dated 2021) can be followed below.

For this assay, the target named is human IRAK4 (Homo sapiens (Human), UniProt Q9NWZ3). The assay can be described thus: IRAK4 kinase inhibition, Transcreener fluorescence polarization (ADP detection). The conditions noted are these: recombinant full-length His6-IRAK4; 1.25 nM IRAK4; 125 μM ATP; 90 min; ATP Km 642 μM. The class given is biochemical. The method, then:
Compounds were assayed for inhibition of human IRAK4 and IRAK1 catalytic activity using recombinant enzyme produced from insect cells. Full-length IRAK4 protein, carrying an N-terminal His6-Tag, was obtained from Life Technologies (Carlsbad, Calif., USA). The IRAK1 construct was produced internally and was comprised of IRAK1 residues Arg194 to Ser712, preceded by an NH2-terminal His6 tag and the coding sequence for glutathione-S-transferase.
Kinase activities were assayed using the Transcreener-Fluorecescence polarization platform (BelBrook Labs, Madison, Wis., USA) that measures amounts of the reaction product, ADP.
384 well assay plates spotted with compound received 4 μl of a 2× substrate (ATP+peptide) mix in reaction buffer, followed by 4 μl of 2× enzyme diluted in reaction buffer.

Structures can show the parent of a compound that is named as a salt.

One may read the Ki as a measure of affinity in units of concentration, obtained from inhibition or displacement.

Chain of human IRAK4 (Q9NWZ3 whole entry, the tested form may be a part): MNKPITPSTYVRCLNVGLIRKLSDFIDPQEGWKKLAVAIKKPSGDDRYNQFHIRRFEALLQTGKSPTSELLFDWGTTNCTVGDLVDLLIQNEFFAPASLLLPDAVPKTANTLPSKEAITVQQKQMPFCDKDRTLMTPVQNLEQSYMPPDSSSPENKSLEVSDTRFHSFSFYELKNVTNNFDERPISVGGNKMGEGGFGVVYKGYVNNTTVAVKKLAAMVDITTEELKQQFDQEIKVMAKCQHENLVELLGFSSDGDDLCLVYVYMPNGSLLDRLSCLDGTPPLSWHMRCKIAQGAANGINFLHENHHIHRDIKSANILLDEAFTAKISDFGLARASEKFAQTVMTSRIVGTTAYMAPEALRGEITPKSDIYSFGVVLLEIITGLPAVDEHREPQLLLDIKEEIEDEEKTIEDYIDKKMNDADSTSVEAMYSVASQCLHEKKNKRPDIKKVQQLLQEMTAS

In the case of `COc1ccc(-n2ccc(C(=O)Nc3cc4c(cc3N3CCOCC3)OC(C)(C)C4)n2)cn1` [Example 58, N-(2,2-Dimethyl-6-morpholino-3H-benzofuran-5-yl)-1-(6-methoxy-3-pyridyl)pyrazole-3-carboxamide], the Ki was 29 nM.
Regarding `CC1(C)Cc2cc(NC(=O)c3cccc4[nH]c(CO)nc34)c(N3CCOCC3)cc2O1` [Example 40, N-(2,2-Dimethyl-6-morpholino-2,3-dihydrobenzofuran-5-yl)-2-(hydroxymethyl)-1H-benzo[d]imidazole-4-carboxamide], the Ki amounted to 28 nM.
Take `CC1(C)Cc2cc(NC(=O)c3cncc4c3nnn4CCO)c(N3CCOCC3)cc2O1` [Example 64, N-(2,2-Dimethyl-6-morpholino-3H-benzofuran-5-yl)-3-(2-hydroxyethyl)triazolo[4,5-c]pyridine-7-carboxamide]: the Ki came to 350 nM.
The same measure for `Cc1cncc(C(=O)Nc2cc3c(cc2N2CCOCC2)OC(C)(C)C3)n1` [Example 7, N-(2,2-Dimethyl-6-morpholino-2,3-dihydrobenzofuran-5-yl)-6-methylpyrazine-2-carboxamide]: 43 nM; for `C[C@]1(CO)Cc2cc(NC(=O)c3csc4cc(Cl)cnc34)c(N3CCOCC3)cc2O1` (stereo in doubt) [Example 56, (R)-6-Chloro-N-(2-(hydroxymethyl)-2-methyl-6-morpholino-2,3-dihydrobenzofuran-5-yl)thieno[3,2-b]pyridine-3-carboxamide]: 37 nM; for `Cn1nnc2c(C(=O)Nc3cc4c(cc3N3CCOCC3)OC(C)(CO)C4)cncc21` (centres unmarked) [Example 52, N-(2-(Hydroxymethyl)-2-methyl-6-morpholino-2,3-dihydrobenzofuran-5-yl)-3-methyl-3H-[1,2,3]triazolo[4,5-c]pyridine-7-carboxamide]: 100 nM.
The same measure for `Cn1nnc2c(C(=O)Nc3cc4c(cc3N3CCOCC3)O[C@@](C)(CO)C4)cncc21` (single isomer, unassigned) [Example 67]: 180 nM; for `Cc1ccc(C(=O)Nc2cc3c(cc2N2CCOCC2)OC(C)(C)C3)o1` [Example 31, N-(2,2-Dimethyl-6-morpholino-2,3-dihydrobenzofuran-5-yl)-5-methylfuran-2-carboxamide]: 23 nM.
On to `CC1(C)Cc2cc(NC(=O)c3coc(-c4ccncn4)n3)c(N3CCOCC3)cc2O1` [Example 34, N-(2,2-Dimethyl-6-morpholino-2,3-dihydrobenzofuran-5-yl)-2-(pyrimidin-4-yl)oxazole-4-carboxamide], for which the Ki was determined as 17 nM.
Turning to `Cn1ccc(C(=O)Nc2cc3c(cc2N2CCOCC2)O[C@](C)(CO)C3)n1` (single isomer, unassigned) [Example 16], the Ki is 48 nM.
In the case of `CC1(C)Cc2cc(NC(=O)c3ccn(-c4ccnc(CO)c4)n3)c(N3CCOCC3)cc2O1` [Example 59, N-(2,2-Dimethyl-6-morpholino-3H-benzofuran-5-yl)-1-[2-(hydroxymethyl)-4-pyridyl]pyrazole-3-carboxamide], the Ki came out at 1.6 nM.
With `CC1(C)Cc2cc(NC(=O)c3ccco3)c(N3CCOCC3)cc2O1` [Example 48, N-(2,2-Dimethyl-6-morpholino-2,3-dihydrobenzofuran-5-yl)furan-2-carboxamide] the figure was 220 nM; with `CC1(C)Cc2cc(NC(=O)c3cccc(C(F)(F)F)n3)c(N3CCOCC3)cc2O1` [Example 22, N-(2,2-Dimethyl-6-morpholino-2,3-dihydrobenzofuran-5-yl)-6-(trifluoromethyl)picolinamide], 25 nM; with `Cc1nc2c(C(=O)Nc3cc4c(cc3N3CCOCC3)OC(C)(C)C4)cncc2[nH]1` [Example 25, N-(2,2-Dimethyl-6-morpholino-2,3-dihydrobenzofuran-5-yl)-2-methyl-3H-imidazo[4,5-c]pyridine-7-carboxamide], 35 nM.
For `CCc1cnc(C(=O)Nc2cc3c(cc2N2CCOCC2)OC(C)(C)C3)[nH]1` [Example 43, N-(2,2-Dimethyl-6-morpholino-2,3-dihydrobenzofuran-5-yl)-5-ethyl-1H-imidazole-2-carboxamide], the Ki amounted to 110 nM.
The same measure for `CC1(C)Cc2cc(NC(=O)c3coc(C(C)(C)C)n3)c(N3CCOCC3)cc2O1` [Example 41, 2-(tert-Butyl)-N-(2,2-dimethyl-6-morpholino-2,3-dihydrobenzofuran-5-yl)oxazole-4-carboxamide]: 43 nM; for `CC1(C)Cc2cc(NC(=O)c3cccc(F)n3)c(N3CCOCC3)cc2O1` [Example 8, N-(2,2-Dimethyl-6-morpholino-2,3-dihydrobenzofuran-5-yl)-6-fluoropicolinamide]: 45 nM.
With `CC1(C)Cc2cc(NC(=O)c3cc4ccncc4o3)c(N3CCOCC3)cc2O1` [Example 10, N-(2,2-Dimethyl-6-morpholino-2,3-dihydrobenzofuran-5-yl)furo[2,3-c]pyridine-2-carboxamide] the figure was 27 nM; with `CC1(C)Cc2cc(NC(=O)c3csc4c(N)ncnc34)c(N3CCOCC3)cc2O1` [Example 3, 4-Amino-N-(2,2-dimethyl-6-morpholino-2,3-dihydrobenzofuran-5-yl)thieno[3,2-d]pyrimidine-7-carboxamide], 13 nM.
The same measure for `Cc1cn2cccc(C(=O)Nc3cc4c(cc3N3CCOCC3)OC(C)(C)C4)c2n1` [Example 65, N-(2,2-Dimethyl-6-morpholino-3H-benzofuran-5-yl)-2-methyl-imidazo[1,2-a]pyridine-8-carboxamide]: 270 nM; for `CC1(C)Cc2cc(NC(=O)c3ccc[nH]c3=O)c(N3CCOCC3)cc2O1` [Example 12, N-(2,2-Dimethyl-6-morpholino-2,3-dihydrobenzofuran-5-yl)-2-oxo-1,2-dihydropyridine-3-carboxamide]: 77 nM.
With `CC1(C)Cc2cc(NC(=O)c3ccn(-c4ccnc(NCC(F)(F)F)c4)n3)c(N3CCOCC3)cc2O1` [Example 62, N-(2,2-Dimethyl-6-morpholino-3H-benzofuran-5-yl)-1-[2-(2,2,2-trifluoroethylamino)-4-pyridyl]pyrazole-3-carboxamide], the inhibition constant (Ki) was found to be 17 nM.
The same measure for `CC1(C)Cc2cc(NC(=O)c3ccnc(S(C)(=O)=O)n3)c(N3CCOCC3)cc2O1` [Example 9, N-(2,2-Dimethyl-6-morpholino-2,3-dihydrobenzofuran-5-yl)-2-(methylsulfonyl)pyrimidine-4-carboxamide]: 530 nM.
Turning to `C[C@@]1(CO)Cc2cc(NC(=O)c3csc4cc(Cl)cnc34)c(N3CCOCC3)cc2O1` (stereo in doubt) [Example 57, (S)-6-Chloro-N-(2-(hydroxymethyl)-2-methyl-6-morpholino-2,3-dihydrobenzofuran-5-yl)thieno[3,2-b]pyridine-3-carboxamide], the Ki came to 19 nM.
As for `CC(=O)Nc1cc(-n2ccc(C(=O)Nc3cc4c(cc3N3CCOCC3)OC(C)(C)C4)n2)ccn1` [Example 49, 1-(2-Acetamido-4-pyridyl)-N-(2,2-dimethyl-6-morpholino-3H-benzofuran-5-yl)pyrazole-3-carboxamide], the Ki is 7.6 nM.
In the case of `CC1(C)Cc2cc(NC(=O)c3csc(N4CCOCC4)n3)c(N3CCOCC3)cc2O1` [Example 36, N-(2,2-Dimethyl-6-morpholino-2,3-dihydrobenzofuran-5-yl)-2-morpholinothiazole-4-carboxamide], the Ki was determined as 3.8 nM.
`CC1(C)Cc2cc(NC(=O)c3ccn(-c4ccc(=O)[nH]c4)n3)c(N3CCOCC3)cc2O1` [Example 66, N-(2,2-Dimethyl-6-morpholino-3H-benzofuran-5-yl)-1-(6-oxo-1H-pyridin-3-yl)pyrazole-3-carboxamide]: the Ki was 14 nM.
As to `CCn1nnc2c(C(=O)Nc3cc4c(cc3N3CCOCC3)OC(C)(C)C4)cncc21` [Example 53, N-(2,2-Dimethyl-6-morpholino-3H-benzofuran-5-yl)-3-ethyl-triazolo[4,5-c]pyridine-7-carboxamide], the Ki was 220 nM.
Regarding `Cn1ccc(C(=O)Nc2cc3c(cc2N2CCOCC2)O[C@@](C)(CO)C3)n1` (single isomer, unassigned) [Example 17], the Ki is 120 nM.
`CC1COCCN1c1nc(C(=O)Nc2cc3c(cc2N2CCOCC2)OC(C)(C)C3)cs1` (centres unmarked) [Example 32, N-(2,2-Dimethyl-6-morpholino-2,3-dihydrobenzofuran-5-yl)-2-(3-methylmorpholino)thiazole-4-carboxamide]: the Ki was 19 nM.
`CC1(C)Cc2cc(NC(=O)c3cccc4[nH]cnc34)c(N3CCOCC3)cc2O1` [Example 20, N-(2,2-Dimethyl-6-morpholino-2,3-dihydrobenzofuran-5-yl)-1H-benzo[d]imidazole-4-carboxamide]: the Ki came out at 30 nM.
Regarding `Cc1cnc(C(=O)Nc2cc3c(cc2N2CCOCC2)OC(C)(C)C3)[nH]1` [Example 44, N-(2,2-Dimethyl-6-morpholino-2,3-dihydrobenzofuran-5-yl)-5-methyl-1H-imidazole-2-carboxamide], the inhibitory constant (Ki) came to 290 nM.
The same measure for `Cc1nc(C(=O)Nc2cc3c(cc2N2CCOCC2)OC(C)(C)C3)ccc1C#N` [Example 5, 5-Cyano-N-(2,2-dimethyl-6-morpholino-2,3-dihydrobenzofuran-5-yl)-6-methylpicolinamide]: 25 nM; for `CC1(CO)Cc2cc(NC(=O)c3csc4cc(C#N)cnc34)c(N3CCOCC3)cc2O1` (centres unmarked) [Example 69, 6-Cyano-N-(2-(hydroxymethyl)-2-methyl-6-morpholino-2,3-dihydrobenzofuran-5-yl)thieno[3,2-b]pyridine-3-carboxamide Formate]: 28 nM; for `CC1(C)Cc2cc(NC(=O)c3cnccn3)c(N3CCOCC3)cc2O1` [Example 11, N-(2,2-Dimethyl-6-morpholino-2,3-dihydrobenzofuran-5-yl)pyrazine-2-carboxamide]: 290 nM.
